Each structure is given as a SMILES string.

Common to all, as to format: cell-based
In experiment [1] the test system is NF-κB subunit p65 phosphorylation (S536). Put plainly: Western blot of p65 phosphorylation (S536) after DNA damage (irradiation or etoposide) in U2-OS cells. As to conditions: 1-hour pre-treatment, irradiation (IR, 20 Gy), 90 min. The protocol: (§1) Fig.1: Identification of inhibitors specific for DNA damage-induced NF-κB activity. (A) Flowchart representing the high-throughput chemical library screening. A screen/counter-screen strategy was used by stimulating NF-κB in U2-OS cells with etoposide (50 µM for 90 min) and hits were counter-screened with TNFα (10 ng/ml for 20 min). Cells were pre-treated with compounds (10 µM) for 1 hour before stimulation, fixed, and percent p65 nuclear translocation measured by fluorescence microscopy. IC50 values were used for final selection. (B) Comparison of mean p65 nuclear translocation following either etoposide or TNFa stimulation after treatment with each counter-screened hit compound. Values were normalized to etoposide or TNFα positive controls. Specific inhibitors (red) of DNA damage-induced NF-κB signaling were defined by setting cut-off criteria (black line). […] (C) IC50 determination for MW01 (left) and MW05 (right) of p65 nuclear translocation, following either etoposide or TNFα treatment. […] IC50 noted with a dotted line. (D) Structures of compounds selected as leads for further analysis, MW01 (5-Hydroxy-10,11-dimethoxy-9H-benzo[c]indolo[3,2,1-ij][1,5]naphthyridin-9-one) and MW05 (3-Amino-7-methoxypyrazolo[3,4-b]quinolin-1-yl)-[3-(dimethylamino)phenyl]methanone). (E) Western blot analysis (top) and quantification (bottom) of NF-κB subunit p65 phosphorylation (S536) following 1-hour pre-treatment with DMSO, MW01 (10 µM), or MW05 (10 µM), in unstimulated, after 90 min irradiation (IR, 20 Gy), or after 20 min TNFα (10 ng/mL) conditions in U2- OS cells. B-actin was used as loading control after. The p-p65 signal was first normalized to β-actin loading control per sample, then each value to DMSO-treated unstimulated to evaluate relative activation of NF-κB. Ns: not significant; ***: p<0.001.
NF-κB was stimulated by DNA damage through either 20 Gy irradiation (IR) and analyzed after 90 minutes or by 10 ng/ml TNFα and analyzed after 20 minutes unless otherwise noted.
All compounds were pre-treated for 1-hour prior to NF-κB stimulation unless otherwise noted.
(§2) Cells were collected by scraping and lysed in Baeuerle lysis buffer supplemented with Protease (Thermo Fisher Scientific, 78429) and Phosphatase (Thermo Fisher Scientific, 78420) inhibitors after the appropriate treatment and time point. Proteins were quantified by Bradford assay (Bio-Rad, 5000006) and 20-50 µg of extracted proteins were loaded on 4-20% Protein Gel (Bio-Rad, 4568096) and then transferred onto a PVDF membrane (Bio-Rad, 1620177) using Tris-Glycine buffer with 20% of methanol. Blocking was performed for 1h with 5% not-fat dry milk in PBS 1X. Immunodetection was obtained using primary and secondary antibodies reported in Key Resources Table. The membranes were analyzed by ECL (Thermo Fisher Scientific, 34580) and detected by ChemiDoc XRS+ (Bio-Rad) using ImageLab software (Bio-Rad).
In general terms: A western blot detects proteins with antibodies after separation by electrophoresis.

The test system is the same in experiment [2]. Put plainly: Western blot of p65 phosphorylation (S536) after TNFα in U2-OS cells. Conditions: 1-hour pre-treatment, TNFα 10 ng/ml, 20 min. The protocol:
as §1, with “(D) Structures of compounds selected as leads for further analysis, MW01 (5-Hydroxy-10,11-dimethoxy-9H-benzo[c]indolo[3,2,1-ij][1,5]naphthyridin-9-one) and MW05 (3-Amino-7-methoxypyrazolo[3,4-b]quinolin-1-yl)-[3-(dimethylamino)phenyl]methanone).” left out, “B-actin was used as loading control after. The p-p65 signal was first normalized to β-actin loading control per sample, then each value to DMSO-treated unstimulated to evaluate relative activation of NF-κB. Ns: not significant; ***: p<0.001.” left out
NF-κB was stimulated by DNA damage through either 20 Gy irradiation (IR) and analyzed after 90 minutes or by 10 ng/ml TNFα and analyzed after 20 minutes unless otherwise noted. […]
Cells were collected by scraping and lysed in Baeuerle lysis buffer supplemented with Protease (Thermo Fisher Scientific, 78429) and Phosphatase (Thermo Fisher Scientific, 78420) inhibitors after the appropriate treatment and time point. Proteins were quantified by Bradford assay (Bio-Rad, 5000006) and 20-50 µg of extracted proteins were loaded on 4-20% Protein Gel (Bio-Rad, 4568096) and then transferred onto a PVDF membrane (Bio-Rad, 1620177) using Tris-Glycine buffer with 20% of methanol. […]

Experiment [3] deals with Akt phosphorylation (S473). Put plainly: Western blot of Akt phosphorylation (S473) in U2-OS cells. Conditions: 1-hour pre-treatment. The protocol: Fig.2: MW01 and MW05 are potent and selective kinase inhibitors. […] Heatmap indicates lower IC50. […] (C) Western blot analysis of NF-κB p65 phosphorylation (S536) and Akt phosphorylation (S473) following 1-hour pre-treatment with DMSO, MW01 (10 µM), MW05 (10µM), PI-103 (1 µM), NU7441 (1 µM), or MU1210 (1 µM) in unstimulated, after 90 min irradiation (IR, 20 Gy), or after 20 min TNFα (10 ng/ml) conditions in U2-OS cells. (D) mRNA expression analysis of CLK2 (top), 48 hours after transfection with siNC, CLK2 si1, or CLK2 si2. mRNA expression analysis of NFKBIA (bottom), 48 hours after transfection with siNC, CLK2 si1, orCLK2 si2. Values are normalized to unstimulated siNC expressing cells. Statistical comparison was made between experimental conditions and respective paired siNC expressing controls. ns: not significant; **, ***, ****: p<0.01, p<0.001, p<0.000. (E) Western blot analysis of U2-OS cells after transfection with siNC or CLK2 si2 unstimulated, after irradiation (IR), or after TNFα treatment. Vinculin used as loading control. (F) IC50 (nM) of all CLK isoforms for MW01 and MW05. (G) Quantification from (E) with CLK2 knockdown and p-p65 quantification (top left and top right, respectively) and CLK4 knockdown and p-p65 (bottom left and bottom right, respectively. ns: not significant; **, ***, ****: p<0.01, p<0.001, p<0.0001.
as §2, with “Immunodetection was obtained using primary and secondary antibodies reported in Key Resources Table.” left out, “(Bio-Rad). […]” for “(Bio-Rad).”

In the case of `O=c1cc(N2CCOCC2)oc2c(-c3cccc4c3sc3ccccc34)cccc12` [NU-7441, reference compound], the “phosphorylation of p65 at serine 536 after DNA damage” value (“phosphorylation … after DNA damage” for short) in experiment [1] is “did not reduce p-p65”. Further, the “phosphorylation of p65 at serine 536, TNFα-stimulated” value in experiment [2] is “did not reduce p-p65”.
Take `Cn1cc(-c2ccc3occ(-c4ccccc4-c4ccccc4)c3n2)cn1` [MU140, reference compound]: the “phosphorylation … after DNA damage” value in experiment [1] is “not”.
Regarding `Cn1cc(-c2ccc3occ(-c4cccc(-c5ccncc5)c4)c3n2)cn1` [MU-1210, reference compound], the “phosphorylation … after DNA damage” value in experiment [1] was “reduction in p65 phosphorylation”.
On to `Oc1cccc(-c2nc(N3CCOCC3)c3oc4ncccc4c3n2)c1` [PI-103, reference compound], for which, in experiment [3], the “reduction of p-Akt” value is recorded as “complete reduction”.

These data come from patent EP4467141A1, “PYRAZOLO-QUINOLINES AS SELECTIVE INHIBITORS OF GENOTOXIC STRESS-INDUCED IKK/NF- KB PATHWAYS FOR CANCER THERAPY” (Max-Delbrück-Centrum für Molekulare Medizin in der …, priority 2023, dated 2024).
